This passage reports GI50 and IC50 results from patent US8436012B2, “Imidazopyridin-2-one derivatives” (Daiichi Sankyo Company, Limited, priority 2008, dated 2013).

One test relates to WM-266-4 cells. The test can be described thus: Cell Proliferation Inhibitory Test. It is filed as cell-based. The following applies: Homo sapiens, 72 h, cultured three days with test compound, MTT, read-out: 50% cell proliferation inhibitory activity (GI50 value). The procedure, abridged: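 Cells cultured overnight, then exposed to serially diluted compound for three days; cell amount read by MTT. GI50 solved from 100×[(T−T0)/(C−T0)]=50, with T0 the value at time of compound addition and C the untreated three-day control.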

The target of another test is T1, human mTOR (Homo sapiens, UniProt P42345).
T1 construct: the portion corresponding to 1362-2549aa at the C terminus of human mTOR; made in house
T1 sequence (P42345 1362-2549): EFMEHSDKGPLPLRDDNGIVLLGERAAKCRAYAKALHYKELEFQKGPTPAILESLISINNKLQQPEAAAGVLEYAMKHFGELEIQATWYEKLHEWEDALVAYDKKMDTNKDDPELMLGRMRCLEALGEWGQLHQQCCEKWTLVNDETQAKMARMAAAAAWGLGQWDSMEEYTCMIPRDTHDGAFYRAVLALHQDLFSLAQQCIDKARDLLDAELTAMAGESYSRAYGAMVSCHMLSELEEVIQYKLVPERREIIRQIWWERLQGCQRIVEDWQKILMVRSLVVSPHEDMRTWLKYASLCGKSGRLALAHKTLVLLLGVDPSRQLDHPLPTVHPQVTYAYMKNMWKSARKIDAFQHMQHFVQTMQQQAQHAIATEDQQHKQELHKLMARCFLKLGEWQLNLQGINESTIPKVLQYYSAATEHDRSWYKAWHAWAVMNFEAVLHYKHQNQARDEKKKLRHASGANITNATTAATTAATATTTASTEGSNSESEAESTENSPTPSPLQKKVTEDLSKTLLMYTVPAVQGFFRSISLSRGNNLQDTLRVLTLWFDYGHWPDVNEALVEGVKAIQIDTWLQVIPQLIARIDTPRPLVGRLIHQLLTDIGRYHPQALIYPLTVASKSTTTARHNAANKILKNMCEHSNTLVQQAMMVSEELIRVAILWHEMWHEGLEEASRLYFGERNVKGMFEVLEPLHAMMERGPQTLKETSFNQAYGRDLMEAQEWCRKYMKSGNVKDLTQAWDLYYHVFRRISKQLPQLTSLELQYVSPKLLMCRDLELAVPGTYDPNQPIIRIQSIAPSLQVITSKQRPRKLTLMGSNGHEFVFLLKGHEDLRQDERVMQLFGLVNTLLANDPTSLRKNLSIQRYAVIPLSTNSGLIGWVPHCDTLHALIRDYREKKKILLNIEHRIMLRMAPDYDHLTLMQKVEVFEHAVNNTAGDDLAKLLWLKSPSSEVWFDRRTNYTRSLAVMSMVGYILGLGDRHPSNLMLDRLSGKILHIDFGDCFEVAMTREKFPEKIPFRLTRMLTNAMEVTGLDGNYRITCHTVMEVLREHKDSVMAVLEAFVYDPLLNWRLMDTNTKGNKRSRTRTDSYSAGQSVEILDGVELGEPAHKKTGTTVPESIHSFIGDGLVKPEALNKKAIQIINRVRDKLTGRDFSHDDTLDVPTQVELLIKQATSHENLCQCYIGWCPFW
The test can be described thus: mTOR Kinase Activity Inhibition Test. Type of test: biochemical. The following applies: His-tagged mTOR (1362C), biotinylated peptide substrate, ATP, 3 hours at room temperature, fluorescence resonance energy transfer 665 nm/620 nm; read-out: IC50 value of mTOR enzyme inhibitory activity. The procedure, abridged:
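Purified His-tagged human mTOR (1362–2549aa, from HEK293) was used with biotinylated peptide (8 μg/mL in enzyme solution) in HEPES pH 7.5 with 20 mM MnCl2. Compounds were diluted in 20 μM ATP solution, and the reaction ran 3 h at RT. Phospho-S6K(Thr389) HTRF was read as the 665/620 nm ratio, and IC50 came from % inhibition versus controls.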

The term pIC50 denotes the negative decadic logarithm of the IC50, by convention in mol/L.

SMILES strings stand for the structures. pIC50: −log10 of the molar value.

As to `Cc1c[nH]c2ncc(-c3cnc4[nH]c(=O)n(C[C@H]5COCCO5)c4c3)c(C)c12` [Example 124, 6-(3,4-Dimethyl-1H-pyrrolo[2,3-b]pyridin-5-yl)-1-[(2S)-1,4-dioxan-2-ylmethyl]-1,3-dihydro-2H-imidazo[4,5-b]pyridin-2-one], in the test on WM-266-4 cells, the GI50 is less than 3000 nM. Moreover, the pIC50 on human mTOR was greater than 7.30.

Take `Cc1c(-c2cnc3[nH]c(=O)n(C[C@H]4COCCO4)c3c2)cnc2[nH]cc(Cl)c12` [Example 125, 6-(3-Chloro-4-methyl-1H-pyrrolo[2,3-b]pyridin-5-yl)-1-[(2S)-1,4-dioxan-2-ylmethyl]-1,3-dihydro-2H-imidazo[4,5-b]pyridin-2-one]: the GI50 in the test on WM-266-4 cells is less than 3000 nM. The pIC50 on human mTOR is greater than 7.30.

For the compound `Cc1c(-c2cnc3[nH]c(=O)n(C[C@H]4COCCO4)c3c2)cnc2[nH]cc(F)c12` [Example 126, 1-[(2S)-1,4-Dioxan-2-ylmethyl]-6-(3-fluoro-4-methyl-1H-pyrrolo[2,3-b]pyridin-5-yl)-1,3-dihydro-2H-imidazo[4,5-b]pyridin-2-one], in the test on WM-266-4 cells, the GI50 was less than 3000 nM. Further, the pIC50 at human mTOR was greater than 7.30.

With `O=c1[nH]c2ncc(-c3cc4cc[nH]c4nc3Cl)cc2n1C[C@H]1COCCO1` [Example 127, 6-(6-Chloro-1H-pyrrolo[2,3-b]pyridin-5-yl)-1-[(2S)-1,4-dioxan-2-ylmethyl]-1,3-dihydro-2H-imidazo[4,5-b]pyridin-2-one], the GI50 with WM-266-4 cells is less than 3000 nM. Also, the negative-log IC50 (pIC50) at human mTOR was greater than 7.30.

In the case of `Cc1c(-c2cnc3[nH]c(=O)n(C[C@H]4COCCO4)c3c2)cc(F)c2[nH]ccc12` [Example 128, 1-[(2S)-1,4-Dioxan-2-ylmethyl]-6-(7-fluoro-4-methyl-1H-indol-5-yl)-1,3-dihydro-2H-imidazo[4,5-b]pyridin-2-one], the GI50 in the test with WM-266-4 cells is less than 3000 nM. Also, at human mTOR, the negative logarithm of the IC50 (pIC50) was greater than 7.30.

Turning to `Cc1nc2[nH]ccc2cc1-c1cnc2[nH]c(=O)n(C[C@H]3COCCO3)c2c1` [Example 129, 1-[(2S)-1,4-Dioxan-2-ylmethyl]-6-(6-methyl-1H-pyrrolo[2,3-b]pyridin-5-yl)-1,3-dihydro-2H-imidazo[4,5-b]pyridin-2-one], in the test with WM-266-4 cells, the GI50 was less than 3000 nM. Besides, the pIC50 at human mTOR is greater than 7.30.

As to `Nc1c(-c2cnc3[nH]c(=O)n(C[C@H]4COCCO4)c3c2)cnc2[nH]ccc12` [Example 130, 6-(4-Amino-1H-pyrrolo[2,3-b]pyridin-5-yl)-1-[(2S)-1,4-dioxan-2-ylmethyl]-1,3-dihydro-2H-imidazo[4,5-b]pyridin-2-one], the GI50 with WM-266-4 cells was in the range of 3000 to 25000 nM. On human mTOR, the pIC50 is greater than 7.30.

Regarding `CN(C)c1c(-c2cnc3[nH]c(=O)n(C[C@H]4COCCO4)c3c2)cnc2[nH]ccc12` [Example 131, 6-[4-(Dimethylamino)-1H-pyrrolo[2,3-b]pyridin-5-yl]-1-[(2S)-1,4-dioxan-2-ylmethyl]-1,3-dihydro-2H-imidazo[4,5-b]pyridin-2-one], the GI50 in the test with WM-266-4 cells was 3000 to 25000 nM. Further, the negative logarithm of the IC50 (pIC50) on human mTOR is 5.30 to 7.00.

For `CN(CCO)c1c(-c2cnc3[nH]c(=O)n(C[C@H]4COCCO4)c3c2)cnc2[nH]ccc12` [Example 132, 1-[(2S)-1,4-Dioxan-2-ylmethyl]-6-{4-[(2-hydroxyethyl)(methyl)amino]-1H-pyrrolo[2,3-b]pyridin-5-yl}-1,3-dihydro-2H-imidazo[4,5-b]pyridin-2-one], in the test with WM-266-4 cells, the GI50 was 3000 to 25000 nM. Besides, the pIC50 at human mTOR is 5.30 to 7.00.

Regarding `COc1c(-c2cnc3[nH]c(=O)n(C[C@H]4COCCO4)c3c2)cnc2[nH]ccc12` [Example 133, 1-[(2S)-1,4-Dioxan-2-ylmethyl]-6-(4-methoxy-1H-pyrrolo[2,3-b]pyridin-5-yl)-1,3-dihydro-2H-imidazo[4,5-b]pyridin-2-one], the GI50 with WM-266-4 cells is less than 3000 nM. For the same compound, the pIC50 at human mTOR was greater than 7.30.

For the compound `COc1c[nH]c2ncc(-c3cnc4[nH]c(=O)n(C[C@H]5COCCO5)c4c3)cc12` [Example 134, 1-[(2S)-1,4-Dioxan-2-ylmethyl]-6-(3-methoxy-1H-pyrrolo[2,3-b]pyridin-5-yl)-1,3-dihydro-2H-imidazo[4,5-b]pyridin-2-one], the GI50 with WM-266-4 cells is less than 3000 nM. Also, at human mTOR, the pIC50 was greater than 7.30.

Take `CO[C@H]1CC[C@@H](Cn2c(=O)[nH]c3ncc(-c4cnc5[nH]ccc5c4)cc32)OC1` [Example 135, 2,6-Anhydro-1,3,4-trideoxy-5-O-methyl-1-[2-oxo-6-(1H-pyrrolo[2,3-b]pyridin-5-yl)-2,3-dihydro-1H-imidazo[4,5-b]pyridin-1-yl]-D-threo-hexitol]: the GI50 in the test on WM-266-4 cells was less than 3000 nM. The pIC50 on human mTOR was greater than 7.30.

For `CO[C@@H]1CC[C@H](Cn2c(=O)[nH]c3ncc(-c4cnc5[nH]ccc5c4)cc32)OC1` [Example 136, 2,6-Anhydro-1,3,4-trideoxy-5-O-methyl-1-[2-oxo-6-(1H-pyrrolo[2,3-b]pyridin-5-yl)-2,3-dihydro-1H-imidazo[4,5-b]pyridin-1-yl]-L-threo-hexitol], the GI50 in the test with WM-266-4 cells was less than 3000 nM. Also, the pIC50 at human mTOR was greater than 7.30.

Turning to `CO[C@H]1CCO[C@@H](Cn2c(=O)[nH]c3ncc(-c4cnc5[nH]ccc5c4)cc32)C1` [Example 137, 2,6-Anhydro-1,3,5-trideoxy-4-O-methyl-1-[2-oxo-6-(1H-pyrrolo[2,3-b]pyridin-5-yl)-2,3-dihydro-1H-imidazo[4,5-b]pyridin-1-yl]-L-threo-hexitol], the GI50 in the test on WM-266-4 cells is less than 3000 nM. Moreover, the negative-log IC50 (pIC50) at human mTOR was greater than 7.30.

As to `CO[C@@H]1CCO[C@H](Cn2c(=O)[nH]c3ncc(-c4cnc5[nH]ccc5c4)cc32)C1` [Example 138, 2,6-Anhydro-1,3,5-trideoxy-4-O-methyl-1-[2-oxo-6-(1H-pyrrolo[2,3-b]pyridin-5-yl)-2,3-dihydro-1H-imidazo[4,5-b]pyridin-1-yl]-D-threo-hexitol], the GI50 in the test with WM-266-4 cells was less than 3000 nM. At human mTOR, the pIC50 is greater than 7.30.

In the case of `CO[C@H]1CCO[C@@H](Cn2c(=O)[nH]c3ncc(-c4cnc5[nH]ccc5c4C)cc32)C1` [Example 139, 2,6-Anhydro-1,3,5-trideoxy-4-O-methyl-1-[6-(4-methyl-1H-pyrrolo[2,3-b]pyridin-5-yl)-2-oxo-2,3-dihydro-1H-imidazo[4,5-b]pyridin-1-yl]-L-threo-hexitol], in the test on WM-266-4 cells, the GI50 was less than 3000 nM. The pIC50 at human mTOR is greater than 7.30.

As for `CO[C@@H]1CCO[C@H](Cn2c(=O)[nH]c3ncc(-c4cnc5[nH]ccc5c4C)cc32)C1` [Example 140, 2,6-Anhydro-1,3,5-trideoxy-4-O-methyl-1-[6-(4-methyl-1H-pyrrolo[2,3-b]pyridin-5-yl)-2-oxo-2,3-dihydro-1H-imidazo[4,5-b]pyridin-1-yl]-D-threo-hexitol], the GI50 with WM-266-4 cells is less than 3000 nM. Moreover, at human mTOR, the negative logarithm of the IC50 (pIC50) is greater than 7.30.

Regarding `Cc1c(-c2cnc3[nH]c(=O)n(C[C@H]4CC[C@@H](O)CO4)c3c2)cnc2[nH]ccc12` [Example 143, 2,6-Anhydro-1,3,4-trideoxy-1-[6-(4-methyl-1H-pyrrolo[2,3-b]pyridin-5-yl)-2-oxo-2,3-dihydro-1H-imidazo[4,5-b]pyridin-1-yl]-L-threo-hexitol], in the test on WM-266-4 cells, the GI50 was less than 3000 nM. Besides, at human mTOR, the pIC50 was greater than 7.30.

On to `Cc1c[nH]c2ncc(-c3cnc4[nH]c(=O)n(C[C@H]5CC[C@@H](O)CO5)c4c3)c(C)c12` [Example 144, 2,6-Anhydro-1,3,4-trideoxy-1-[6-(3,4-dimethyl-1H-pyrrolo[2,3-b]pyridin-5-yl)-2-oxo-2,3-dihydro-1H-imidazo[4,5-b]pyridin-1-yl]-L-threo-hexitol], for which the GI50 with WM-266-4 cells is less than 3000 nM. Further, the pIC50 on human mTOR was greater than 7.30.

Turning to `Cc1c(-c2cnc3[nH]c(=O)n(C[C@H]4CC[C@@H](O)CO4)c3c2)cnc2[nH]cc(Cl)c12` [Example 145, 2,6-Anhydro-1-[6-(3-chloro-4-methyl-1H-pyrrolo[2,3-b]pyridin-5-yl)-2-oxo-2,3-dihydro-1H-imidazo[4,5-b]pyridin-1-yl]-1,3,4-trideoxy-L-threo-hexitol], in the test on WM-266-4 cells, the GI50 was less than 3000 nM. Moreover, on human mTOR, the pIC50 is greater than 7.30.

For `CO[C@@H]1CC[C@H](Cn2c(=O)[nH]c3ncc(-c4cnc5[nH]ccc5c4C)cc32)OC1` [Example 146, 2,6-Anhydro-1,3,4-trideoxy-5-O-methyl-1-[6-(4-methyl-1H-pyrrolo[2,3-b]pyridin-5-yl)-2-oxo-2,3-dihydro-1H-imidazo[4,5-b]pyridin-1-yl]-L-threo-hexitol], in the test on WM-266-4 cells, the GI50 is less than 3000 nM. Further, at human mTOR, the pIC50 is greater than 7.30.

On to `CO[C@@H]1CC[C@H](Cn2c(=O)[nH]c3ncc(-c4cnc5[nH]cc(C)c5c4C)cc32)OC1` [Example 147, 2,6-Anhydro-1,3,4-trideoxy-1-[6-(3,4-dimethyl-1H-pyrrolo[2,3-b]pyridin-5-yl)-2-oxo-2,3-dihydro-1H-imidazo[4,5-b]pyridin-1-yl]-5-O-methyl-L-threo-hexitol], for which the GI50 in the test with WM-266-4 cells was less than 3000 nM. Moreover, the pIC50 on human mTOR was greater than 7.30.

`CO[C@@H]1CC[C@H](Cn2c(=O)[nH]c3ncc(-c4cnc5[nH]cc(Cl)c5c4C)cc32)OC1` [Example 148, 2,6-Anhydro-1-[6-(3-chloro-4-methyl-1H-pyrrolo[2,3-b]pyridin-5-yl)-2-oxo-2,3-dihydro-1H-imidazo[4,5-b]pyridin-1-yl]-1,3,4-trideoxy-5-O-methyl-L-threo-hexitol]: the GI50 with WM-266-4 cells was less than 3000 nM. Further, on human mTOR, the pIC50 is greater than 7.30.
